Test results reported in patent US20240060990A1, “SPATIAL SIGNALING NETWORKS FOR MULTIPLEXED DRUG RESPONSE MEASUREMENT AND MODELING” (Georgia Tech Research Corporation, priority 2022, published 2024).
“Also recorded” adds a separate entry of the source.

Legend:
NSCLC patients = settings: phase 3 clinical trial, 80 mg once daily, vs other EGFR-TKI drugs; cited from earlier work
Mcl-1 = settings: cited from earlier work
[1] = test system: pancytokeratin-positive cells; experiment: Pan-cytokeratin staining of HCC827 xenograft tissue; type: in vivo, mouse; settings: 2-month treatment
Excerpt: Tissues: HCC827-derived mouse xenografts were provided by Dr. Sun Shi-yong (Emory University). […] Mice were then euthanized, and the tumor was embedded in OCT for sectioning. The OCT tissues were fixed in acetone, rehydrated, permeabilized in 0.4% Triton X-100, blocked, and ready for multiplexed experiments.

p-EGFR (Tyr1086) [2] = experiment: p-EGFR immunofluorescence across four drug concentrations; type: cell-based, human; settings: PC9 cells, 48 hours
Description: (§1) Following that, the cells were then fixed and permeabilized with 1.6% formaldehyde in 1×PBS for 10 minutes at RT and 0.5% Triton X-100 for 10 minutes at RT, respectively (FIG. 10A). The cells were then blocked using a cell staining medium (CSM) containing 5d. […] PC9 cells were stained with p-EGFR and β-tubulin overnight followed by 1-hour incubation of secondary antibodies at RT, and 15 mins DAPI staining. The cells were then imaged at 40× magnification, and the cell number was analyzed using ImageJ. […] The coverslip was mounted to an acrylic holder for multiple cycles of staining.

cyclin D1/CDK4 = experiment: RapMPI (multiplexed PLA) PPI counts in HCC827 cells, 9 PPI panel; type: cell-based, human; settings: 12 hours, 9 PPI dataset
Description: as §1, with “respectively.” for “respectively (FIG. 10A).”, “0.5% BSA, and 0.02% Sodium Azide in PBS.” for “5d.”, “HCC827” for “PC9”, “p-ERK” for “p-EGFR and β-tubulin”, “10” for “15”, “intensity levels were analyzed.” for “cell number was analyzed using ImageJ.”
(§2) RapMPI on cell cultures: For single color detection, each coverslip prepared with cells was stained with multiple PPIs with one PPI per cycle. The cells were fixed, permeabilized, and then ready for the following staining steps: 1) block the sample with Duolink blocking solution; 2) incubate it with one pair of proteins, conjugated to one PLUS and one MINUS oligonucleotide at 4° C. overnight.
(§3) For multicolor detection, after permeabilization, the cells underwent the following steps: 1) block the sample with Duolink blocking solution; 2) incubate it with two pair of proteins, conjugated to one pair of oligonucleotides at 4° C. overnight. […] After imaging, the samples were incubated with DNase at a 1:50 dilution rate for 4 hours at RT, followed by 3 times 30% formamide washes and 3 times 1×PBS washes.
(§4) PPI detection: PPI signals were detected using a custom algorithm leveraging a traditional image processing pipeline. More specifically, each PPI image was preprocessed as followed: images were first transformed using a top-hat filter of size 3 pixels to reduce the noise around PPI signals, then Laplacian of Gaussian images was used to detect bright local maxima as PPI signals. In 3D images, double detection of PPI was filtered out at the same position in consecutive Z stacks. After detecting all the PPI locations in 3D, PPI was observed within a 2.5-pixel radius (0.045 um) by creating a PPI neighborhood graph of radius threshold 2.5 pixels and getting all connected components in the graph. Finally, the mean position of the unique connected components in the graph was extracted as identified unique PPI signals in 3D.

Bim/Tom20 = experiment: as above; type: cell-based, human; settings: 12 hours, 9 PPI dataset
Description: as §1, with “respectively.” for “respectively (FIG. 10A).”, “0.5% BSA, and 0.02% Sodium Azide in PBS.” for “5d.”, “HCC827” for “PC9”, “p-ERK” for “p-EGFR and β-tubulin”, “10” for “15”, “intensity levels were analyzed.” for “cell number was analyzed using ImageJ.”
as §2, §3, §4

sox2/oct4 = experiment: as above; type: cell-based, human; settings: 12 hours, 9 PPI dataset
Description: as §1, with “respectively.” for “respectively (FIG. 10A).”, “0.5% BSA, and 0.02% Sodium Azide in PBS.” for “5d.”, “HCC827” for “PC9”, “p-ERK” for “p-EGFR and β-tubulin”, “10” for “15”, “intensity levels were analyzed.” for “cell number was analyzed using ImageJ.”
as §2, §3, §4

NF-κB/p-p90RSK = experiment: as above; type: cell-based, human; settings: 12 hours, 9 PPI dataset
Description: as §1, with “respectively.” for “respectively (FIG. 10A).”, “0.5% BSA, and 0.02% Sodium Azide in PBS.” for “5d.”, “HCC827” for “PC9”, “p-ERK” for “p-EGFR and β-tubulin”, “10” for “15”, “intensity levels were analyzed.” for “cell number was analyzed using ImageJ.”
as §2, §3, §4

p-EGFR (Tyr1086) [3] = experiment: RapMIF multiplexed immunofluorescence in PC9 cells, p-EGFR; type: cell-based, human; settings: 40 nM
Description: as §1

SMILES: C=CC(=O)Nc1cc(Nc2nccc(-c3cn(C)c4ccccc34)n2)c(OC)cc1N(C)CCN(C)C [Osimertinib]
- overall survival (NSCLC patients): longer; also recorded: extended
- progression-free survival (NSCLC patients): longer; also recorded: extended
- Mcl-1 level (Mcl-1): downregulates Mcl-1
- pancytokeratin-positive cells [1]: more pancytokeratin-positive cells
- p-EGFR expression, 60 nM vs 40 nM (p-EGFR (Tyr1086) [2]): relatively higher expression under 60 nM than 40 nM
- p-EGFR expression (p-EGFR (Tyr1086) [2]; 0 to 20 nM to 40 nM, normalized to β-tubulin): decreased the p-EGFR expression as the drug concentration increased from 0 to 20 nM to 40 nM
- cyclin D1/CDK4 PPI (cyclin D1/CDK4): inhibitory effect
- interactions between Tom20 and Bim (Bim/Tom20): Reduced interactions
- sox2/oct4 PPI (sox2/oct4): downregulation
- NF-κB/p-p90RSK PPI (NF-κB/p-p90RSK): effectively inhibited
- p-EGFR localization (cell membrane, nucleus) (p-EGFR (Tyr1086) [3]; 48 hours): mainly localized in the cell membrane and the nuclear p-EGFR expression was relatively low
- p-EGFR (Tyr1086) expression level in multiplexed heatmap (p-EGFR (Tyr1086) [3]; 48 hours vs control): remained minimally enhanced; also recorded: remained minimally altered
- spatial continuity of p-EGFR distribution on the cell membrane (p-EGFR (Tyr1086) [3]; 48 hours vs control): disrupted spatial continuity in the p-EGFR distributions on the cell membrane
